Entries after “also recorded” stand apart in the source; their conditions may differ.
How the values were obtained:
[1] = test system: Human Colon carcinoma (HT29) cell-line; assay: Viability of human colon carcinoma HT29 cells, alamar blue and neutral red; assay type: cell-based; conditions: for cell viability / responsiveness of HT29 cells: FIG. 13; for inhibition of cell viability: 10-30 μM, FIG. 14
Procedure: Human Colon carcinoma (HT29) cell-line (ATCC USA) was maintained in RPMI medium supplemented with 10% fetal calf serum and penicillin (100 u/ml), streptomycin (100 mcg/ml), nystatin (12.5 u/ml), L-glutamine (2 mM). Confluent cultures were washed with phosphate-buffered saline (PBS), detached with trypsine (0.25%), centrifuged, and subcultured in 96-well microtiter test plates. Cells were exposed to vehicle or to psychotropic drugs. Cell viability was measured 24 hours later using the alamar blue and neutral red methods. Results were expressed as % of controls (vehicle treated cells). Each sample is the Mean+/−[…] of 4 determinations.

[2] = test system: ConA-induced mouse splenocytes; assay: Con-A-induced mouse splenocyte proliferation/viability, alamar blue; assay type: cell-based; conditions: for cytotoxicity at 20 µM: Mus musculus, Splenocyte, read-out: inhibition of cell viability; for ConA (mitogen)-induced splenocyte proliferation: 2.5-10 μM, alamar blue
Procedure: (§1) Mouse splenocytes were isolated from C57b1 healthy female mice. Cells (10,000/well) were tested under basal and ConA stimulation. Cells were treated with vehicle, dexamethasone or antidepressants (2.5-10 μM). Viability was assessed 48 hr later using alamar blue staining. (Reagents were manufactured by Wildflower, Santa Fe, N. Mex., USA.) Alamar blue assay was performed as in Nociari et al (1998).
(§2) Effect of paroxetine, (SSRI) and clomipramine (TCA) as compared to dexamethasone on Con-A-induced splenocyte proliferation (alamar blue method), and splenocyte-induced secretion of TH1 cytokines TNF-α, IL2 and INFγ, 1×10^6 cells/well, was measured 48 hours after exposure to drugs (2.5-10 μM).
In particular, mouse splenocytes were isolated from C57BL healthy female mice. Cells (10,000/well) were then exposed to Con-A (5 μM) and treated with either the vehicle, with dexamethasone or with a drug (2.5-10 μM).
Cell viability was assessed 48 hr later using Alamar blue staining. The results are presented in FIG. 4, where each point is the graph represents the mean of 4 determinations. […]. The IC50 determined for the antidepressant drugs was in the range of 2.5-5.5 μM.
Cells were treated with vehicle, or the antidepressants (2.5-20 μM). Viability was assessed 48 hours later using alamar blue staining. (Each point is the mean+/−SEM of 4 determinations).

[3] = test system: mouse splenocytes (basal); assay: Basal mouse splenocyte viability, alamar blue; assay type: cell-based; conditions: 2.5-10 μM, 48 hr
Procedure: as §1

[4] = test system: TH1 cytokines TNF-α, IL2 and INFγ; assay: TH1 cytokine secretion (TNF-α, IL2, INFγ) from Con-A-induced splenocytes, ELISA; assay type: cell-based, mouse; conditions: 2.5-10 μM, 48 hours, 1×10^6 cells/well
Procedure: as §2
Cytokines were determined in the supernatant of the splenocyte specimens using an ELISA kit and protocol (Reagents by Cytolab). […] The pattern observed resembles that of dexamethasone.

[5] = test system: splenocytes derived from treated mice; assay: ConA/basal proliferation ratio of splenocytes from mice treated in vivo for 7 days; parameters: species or system mouse; conditions: paroxetine 7.5, clomipramine 15 mg/kg x3/week i.p., Con A 5 μM in vitro
Procedure: Paroxetine or clomipramine were administered at 7.5 and 15 mg/kg x3/week i.p, respectively. Splenocytes were derived from treated animals.
Each group represents the mean of a pool of 5 animals.

human PBMC = assay: Viability of LPS-exposed human PBMC, alamar blue; assay type: cell-based; conditions: LPS 2 ug/well, 2.5-30 μM, 48 hours, both subjects
Procedure: Human PBMC were isolated from whole blood of 2 healthy volunteers (A and B subjects). Cells (2×10^6/ml) were exposed to LPS (2 ug/well) and treated with either the vehicle, or with paroxetine, sertraline, clomipramine and trifluoperazine (2.5-30 μM).

INF-γ = INF-γ secretion from Con-A activated mouse splenocytes, ELISA; assay type: cell-based; conditions: Splenocyte; for inhibition at 10 µM: read-out: maximal inhibition of INF-γ
Procedure: INF-γ was determined in the supernatant of the splenocyte specimens using ELISA kit and protocol (Manufactured by Cytolab).

[6] = test system: Con-A activated splenocytes; assay: cells; conditions: Mus musculus, Splenocyte, read-out: inhibition of viability, splenocytes from naïve animals
Procedure: (§4) LPS (manufactured by Sigma St. Louis Mo., USA, cat no L2880) was administered at 100 μg/mouse×2, on day 7 and day 14).

[7] = chitosan capsules, colon targeting technology; cited from earlier work
Cyclooxygenase-2 (Cox-2) = assay: Cox-2 expression in ConA stimulated mouse splenocytes, Western blot; assay type: cell-based; conditions: 5 μM, normalized to actin
Procedure: Determination was performed using Western blot analysis and quantitative dencitometry of blot.
For each sample 2×10^7 cells were used. Cells were lysed, and equal amounts of protein was fractionated on polyacrylamide gel and then transferred to PVDF membrane. The amount of the protein was detected by immuno-blotting with […] anti-Cox-2 anti body (Murine anti COX2 Polyclonal Cat. 160126, Ann Arbor, Mich., USA. 2nd antibody conjugated to horseradish peroxidase was used and visualized with chemiluminescent Kit (Pierce, Rockford, Ill., USA) on film. Quantification of blot was performed using a densitometry apparatus (VersaDoc™ imaging system, BioRad, USA) and levels were normalized to actin.

bcl-2 = bcl-2 expression in HT29 cells, western blot; assay type: cell-based, human; conditions: 10 and 20 μM, 24 hr
Procedure: (§3) The effect of paroxetine and sertraline on the expression of bcl-2 and C-jun was evaluated in human colon HT29 cell-line 24 hr after drug administration, using western blot analysis for C-jun and bcl-2 and specific antibodies.

C-jun = C-jun expression in HT29 cells, western blot; assay type: cell-based, human; conditions: 10 and 20 μM, 24 hr
Procedure: as §3

[8] = test system: HT29 human colon cancer tumor; assay: HT29 human colon cancer tumor growth in nude mice; assay type: in vivo, mouse; conditions: 20 mg/kg s.c ×3/week, after 3 courses
Procedure: The in-vivo anti tumor activity of active antidepressants was assessed in animal model of cancer. Five Nude mice (males, 6 weeks of age) were inoculated with HT29 cells (4,000,000/100 μL) by subcutaneous (s.c.) administration. […] Sertraline therapy was initiated on the 7th day after cell grafting. 3 animals were treated with sertraline (20 mg/kg s.c×3/week) near the cancerous area and 2 animals served as controls.

[9] = test system: Con-A activated splenocytes; conditions: 5 μM
Procedure: as §4

O=c1[nH]cc(F)c(=O)[nH]1 [5FU, 5fluoro uracil]
cell viability / responsiveness of HT29 cells ([1]; 24 hours): resistance

CN(C)CCC=C1c2ccccc2CCc2ccccc21 [amitriptyline]
maximal inhibition of cell viability ([2]; 2.5-20 μM, 48 hours): 80.7%

CN(C)CCCC1(c2ccc(F)cc2)OCc2cc(C#N)ccc21 (stereo not drawn) [citalopram]
cytotoxicity at 20 µM ([2]; 48 hours): 49%

CN(C)CCCN1c2ccccc2CCc2ccc(Cl)cc21 [clomipramine]
ConA (mitogen)-induced splenocyte proliferation ([2]; 48 hr): dose dependent decrease; also recorded: dose-dependent decrease | basal splenocyte proliferation [3]: dose dependent decrease | lymphocyte-induced pro-inflammatory cytokine secretion [4]: decrease | capacity to respond to Con-A (ratio ConA/basal) vs vehicle treated mice [5]: lower capacity to respond to exogenous stimulus of Con-A | order of potency, decrease in cell viability (human PBMC): sertraline>paroxetine>trifluoperazine>/=clomipramine | inhibition of cell viability [1]: 38%

C[C@@H]1C[C@H]2[C@@H]3CCC4=CC(=O)C=C[C@]4(C)[C@@]3(F)[C@@H](O)C[C@]2(C)[C@@]1(O)C(=O)CO [dexamethasone]
inhibition at 2.5 µM (INF-γ; 2.5 μM): 83% | cytotoxicity at 5 µM [6]: 60%

CN(C)CCC=C1c2ccccc2COc2ccccc21 [doxepine]
cytotoxicity at 20 µM ([2]; 48 hours): 38%

COc1cccc2c1C(=O)c1c(O)c3c(c(O)c1C2=O)C[C@@](O)(C(=O)CO)C[C@@H]3O[C@H]1C[C@H](N)[C@H](O)[C@H](C)O1 [doxorubicin]
cell viability / responsiveness of HT29 cells ([1]; 24 hours): only partial responsiveness

OCCN1CCN(CCCN2c3ccccc3Sc3ccc(C(F)(F)F)cc32)CC1 [fluphenazine]
cell viability / responsiveness of HT29 cells ([1]; 24 hours): dose dependent decrease

COCCCC/C(=N\OCCN)c1ccc(C(F)(F)F)cc1 [fluvoxamine]
inhibition at 10 µM (INF-γ): 51%

Nc1ccc(O)c(C(=O)O)c1 [mesalamine]
decrease in systemic exposure [7]: 50%

OCCN1CCN(CCCN2c3ccccc3Sc3ccc(Cl)cc32)CC1 [perphenazine]
cell viability / responsiveness of HT29 cells ([1]; 24 hours): dose dependent decrease

CN[C@H]1CC[C@@H](c2ccc(Cl)c(Cl)c2)c2ccccc21 [sertraline]
ConA (mitogen)-induced splenocyte proliferation ([2]; 48 hr): dose-dependent decrease | cell viability compared to dexamethasone ([2]; Con-A 5 μM, drug 2.5-10 μM, 48 hr): decreased cell viability to the same extent as compared to dexamethasone | order of potency, decrease in cell viability (human PBMC): sertraline>paroxetine>trifluoperazine>/=clomipramine | reduction of Cox-2 expression (Cyclooxygenase-2 (Cox-2)): 24.3% | inhibition of cell viability [1]: up to 75% | expression of bcl-2 (bcl-2): inhibition | expression of C-jun (C-jun): stimulation | tumor growth vs untreated controls (1 animal) [8]: prevention of tumor growth | tumor growth vs untreated controls (2 other animals) [8]: decrease in tumor growth | response of splenocytes from LPS mice treated in vivo with sertraline ([9]; LPS mice + sertraline 5 mg/kg×3/week two weeks): more responsive | response of splenocytes from LPS mice ([9]; LPS-treated mice): in a manner similar to the naive animals | cytotoxicity at 5 µM [6]: 40%

CSc1ccc2c(c1)N(CCC1CCCCN1C)c1ccccc1S2 (stereo not drawn) [thioridazine]
cell viability / responsiveness of HT29 cells ([1]; 24 hours): dose dependent decrease | cytotoxicity at 20 µM ([1]; Homo sapiens, HT-29, 20 μM, 24 hours, read-out: inhibition of cell viability): 85%

CN1CCN(CCCN2c3ccccc3Sc3ccc(C(F)(F)F)cc32)CC1 [trifluoperazine]
order of potency, decrease in cell viability (human PBMC): sertraline>paroxetine>trifluoperazine>/=clomipramine

COc1ccc(C(CN(C)C)C2(O)CCCCC2)cc1 (stereo not drawn) [venlafaxine]
inhibition at 10 µM (INF-γ): 16%
